Laboratory results taken from US10251889B2, “Substituted pyrazolo[1,5-a]pyrimidine compounds as Trk kinase inhibitors” (Array BioPharma, Inc., priority 2009, dated 2019).

Tests used:
[1] = target: Jak2 (human Jak2 kinase domain, amino acids 808-1132) (Homo sapiens (Human), UniProt O60674); assay: Jak2 inhibition assay (Omnia kinase assay); format: biochemical; conditions: for IC50: Table 1, 500 μM ATP, >1000 nM when >50% inhibition not observed at 1000 nM, read-out: Jak2 Enzyme IC50; for inhibition at 1 µM: read-out: Jak2 Enzyme (% inhibition at 1000 nM), Table 1, 1000 nM test compound
[2] = target: TrkA (histidine-tagged recombinant human TrkA, cytoplasmic domain) (Homo sapiens (Human), UniProt P04629); assay: TrkA ELISA assay; format: biochemical; conditions: Table 1, 500 μM ATP, read-out: TrkA Enzyme IC50
Protocol: An enzyme-linked immunosorbant assay (ELISA) was used to assess TrkA kinase activity in the presence of inhibitors. Immulon 4HBX 384-well microtiter plates (Thermo part #8755) were coated with a 0.025 mg/mL solution of poly (Glu, Ala, Tyr; 6:3:1; Sigma P3899). […] The assay buffer consisted of 25 mM MOPS pH 7.5, 0.005% (v/v) Triton X-100 and 5 mM MgCl2. The reaction mixture was removed from the plate by washing with PBS containing 0.1% (v/v) Tween 20. The phosphorylated reaction product was detected using 0.2 μg/mL of a phosphotyrosine specific monoclonal antibody (clone PY20) conjugated to horseradish peroxidase in conjunction with the TMB Peroxidase Substrate System (KPL). After the addition of 1M phosphoric acid, the chromogenic substrate color intensity was quantitated via absorbance at 450 nm.

Sequence of TrkA (histidine-tagged recombinant human TrkA, cytoplasmic domain) (P04629 440-796): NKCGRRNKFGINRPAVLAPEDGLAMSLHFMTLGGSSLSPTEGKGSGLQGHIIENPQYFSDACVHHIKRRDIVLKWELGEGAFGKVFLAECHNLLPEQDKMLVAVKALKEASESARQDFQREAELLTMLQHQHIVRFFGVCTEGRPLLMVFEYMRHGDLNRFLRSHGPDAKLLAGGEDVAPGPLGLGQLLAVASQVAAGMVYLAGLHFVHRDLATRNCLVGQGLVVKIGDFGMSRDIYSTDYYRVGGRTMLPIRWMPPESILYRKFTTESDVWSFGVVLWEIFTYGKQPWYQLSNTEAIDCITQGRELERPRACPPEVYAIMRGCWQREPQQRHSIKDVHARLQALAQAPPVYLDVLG
Sequence of Jak2 (human Jak2 kinase domain, amino acids 808-1132) (O60674 808-1132): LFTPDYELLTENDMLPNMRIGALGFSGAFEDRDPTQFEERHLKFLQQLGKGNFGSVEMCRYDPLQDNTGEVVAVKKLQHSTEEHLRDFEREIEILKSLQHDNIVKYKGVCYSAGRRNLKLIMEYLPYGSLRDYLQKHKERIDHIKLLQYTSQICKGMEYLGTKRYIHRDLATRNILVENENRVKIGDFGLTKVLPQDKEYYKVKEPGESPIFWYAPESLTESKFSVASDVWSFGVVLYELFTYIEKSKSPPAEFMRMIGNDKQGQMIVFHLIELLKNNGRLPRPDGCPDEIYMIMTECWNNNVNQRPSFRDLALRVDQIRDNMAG

IC50 [1] [nM]	inhibition at 1 µM [1] [%]	IC50 [2] [nM]	SMILES
> 1000	12.5	12.7	CCc1ncc(F)cc1[C@H]1CCCN1c1ccn2ncc(C(=O)N[C@H]3CC[C@H](O)C3)c2n1 [Example 200, 5-((R)-2-(2-ethyl-5-fluoropyridin-3-yl)pyrrolidin-1-yl)-N-((1S,3S)-3-hydroxycyclopentyl)pyrazolo[1,5-a]pyrimidine-3-carboxamide]
> 1000	25.2	8	C[C@@H](NC(=O)c1cnn2ccc(N3CCC[C@@H]3c3cncc(F)c3)nc12)C(F)(F)F [Example 129, 5-((R)-2-(5-fluoropyridin-3-yl)pyrrolidin-1-yl)-N-((R)-1,1,1-trifluoropropan-2-yl)pyrazolo[1,5-a]pyrimidine-3-carboxamide]
–	14.4	16	O=C(N[C@@H]1CCC[C@H]1O)c1cnn2ccc(N3CCC[C@@H]3c3cncc(F)c3)nc12 [Example 133, 5-((R)-2-(5-fluoropyridin-3-yl)pyrrolidin-1-yl)-N-((1R,2R)-2-hydroxycyclopentyl)pyrazolo[1,5-a]pyrimidine-3-carboxamide]
